Experimental data as given in the supplement of paper PMC13207355.
Counter-ions that a name gives are not always drawn.

Experiments:
Details in all cases: exposure time: 72 h
[1] = test system: E13 (patient-derived glioblastoma stem cells of classical subtype); experiment: surviving fraction (nuclei count normalised to DMSO); higher = more cells surviving (less toxic)
[2] = test system: E21 (patient-derived glioblastoma stem cells of mesenchymal subtype); experiment: as above
[3] = test system: E28 (patient-derived glioblastoma stem cells of classical subtype); experiment: as above
[4] = test system: E31 (patient-derived glioblastoma stem cells of proneural subtype); experiment: as above
[5] = test system: E34 (patient-derived glioblastoma stem cells of proneural subtype); experiment: as above
[6] = test system: E57 (patient-derived glioblastoma stem cells of mesenchymal subtype); experiment: as above
[7] = test system: FT3469 (normal neural stem cell line); experiment: as above
[8] = test system: E13; experiment: phenotypic distance (Euclidean, principal components) from DMSO controls (arbitrary units); higher = stronger morphological change
[9] = test system: E21; experiment: as above
[10] = test system: E28; experiment: as above
[11] = test system: E31; experiment: as above
[12] = test system: E34; experiment: as above
[13] = test system: E57; experiment: as above
[14] = test system: FT3469; experiment: as above
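Wherever phenotypic distance (Euclidean, principal components) from DMSO controls is given: cell Painting imaging in 384-well plates, CellProfiler features reduced to at least 20 principal components, Euclidean distance versus same-plate DMSO vehicle wells (0.1% v/v), median over six images per well.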
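Wherever surviving fraction (nuclei count normalised to DMSO) is given: nuclei counted by high-content imaging of Hoechst-stained cells in laminin-coated 384-well plates, relative to 0.1% DMSO vehicle wells, with staurosporine as cell-death control.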

OC(c1cc(C(F)(F)F)nc2c(C(F)(F)F)cccc12)C1CCCCN1 (stereo unspecified) [Mefloquine hydrochloride]
Details	phenotypic distance	surviving fraction
[1], 4.1 nM	–	0.953
[1], 12.3 nM	–	0.908
[1], 37 nM	–	1.09
[1], 111.1 nM	–	1.03
[1], 333.3 nM	–	0.98
[1], 1000 nM	–	0.992
[1], 3000 nM	–	0.842
[2], 4.1 nM	–	1.11
[2], 12.3 nM	–	0.951
[2], 37 nM	–	0.98
[2], 111.1 nM	–	0.983
[2], 333.3 nM	–	1.07
[2], 1000 nM	–	1.05
[2], 3000 nM	–	1.07
[3], 4.1 nM	–	1.12
[3], 12.3 nM	–	1
[3], 37 nM	–	1.22
[3], 111.1 nM	–	1.14
[3], 333.3 nM	–	1.23
[3], 1000 nM	–	1.21
[3], 3000 nM	–	1.12
[4], 4.1 nM	–	1.11
[4], 12.3 nM	–	0.942
[4], 37 nM	–	1.15
[4], 111.1 nM	–	0.922
[4], 333.3 nM	–	1.11
[4], 1000 nM	–	1.06
[4], 3000 nM	–	0.997
[5], 4.1 nM	–	1.1
[5], 12.3 nM	–	0.856
[5], 37 nM	–	1.06
[5], 111.1 nM	–	0.941
[5], 333.3 nM	–	1.14
[5], 1000 nM	–	0.908
[5], 3000 nM	–	1.02
[6], 4.1 nM	–	1.05
[6], 12.3 nM	–	1.05
[6], 37 nM	–	0.93
[6], 111.1 nM	–	0.987
[6], 333.3 nM	–	1.17
[6], 1000 nM	–	0.93
[6], 3000 nM	–	0.903
[7], 4.1 nM	–	1.13
[7], 12.3 nM	–	1.13
[7], 37 nM	–	0.975
[7], 111.1 nM	–	1.2
[7], 333.3 nM	–	1.07
[7], 1000 nM	–	1.02
[7], 3000 nM	–	0.875
[8], 4.1 nM	0.361	–
[8], 12.3 nM	0.509	–
[8], 37 nM	0.5	–
[8], 111.1 nM	1.43	–
[8], 333.3 nM	0.51	–
[8], 1000 nM	0.651	–
[8], 3000 nM	0.845	–
[9], 4.1 nM	0.776	–
[9], 12.3 nM	0.568	–
[9], 37 nM	0.797	–
[9], 111.1 nM	0.488	–
[9], 333.3 nM	0.618	–
[9], 1000 nM	0.511	–
[9], 3000 nM	1.05	–
[10], 4.1 nM	0.636	–
[10], 12.3 nM	0.53	–
[10], 37 nM	0.741	–
[10], 111.1 nM	0.677	–
[10], 333.3 nM	0.764	–
[10], 1000 nM	1.07	–
[10], 3000 nM	1.8	–
[11], 4.1 nM	0.433	–
[11], 12.3 nM	0.421	–
[11], 37 nM	0.563	–
[11], 111.1 nM	0.539	–
[11], 333.3 nM	0.506	–
[11], 1000 nM	0.632	–
[11], 3000 nM	0.65	–
[12], 4.1 nM	0.892	–
[12], 12.3 nM	0.581	–
[12], 37 nM	0.73	–
[12], 111.1 nM	0.475	–
[12], 333.3 nM	0.804	–
[12], 1000 nM	0.787	–
[12], 3000 nM	0.828	–
[13], 4.1 nM	0.488	–
[13], 12.3 nM	0.813	–
[13], 37 nM	0.474	–
[13], 111.1 nM	0.652	–
[13], 333.3 nM	1.37	–
[13], 1000 nM	0.948	–
[13], 3000 nM	0.991	–
[14], 4.1 nM	0.882	–
[14], 12.3 nM	0.444	–
[14], 37 nM	0.675	–
[14], 111.1 nM	0.627	–
[14], 333.3 nM	0.598	–
[14], 1000 nM	0.423	–
[14], 3000 nM	1.16	–

CCN(CC)Cc1ccc(C(=O)N(CCc2ccccc2OC)[C@@H]2CCNC2)cc1
Details	phenotypic distance	surviving fraction
[1], 4.1 nM	–	1.08
[1], 12.3 nM	–	0.868
[1], 37 nM	–	0.939
[1], 111.1 nM	–	0.916
[1], 333.3 nM	–	0.929
[1], 1000 nM	–	0.865
[1], 3000 nM	–	0.251
[2], 4.1 nM	–	0.952
[2], 12.3 nM	–	0.993
[2], 37 nM	–	1
[2], 111.1 nM	–	0.952
[2], 333.3 nM	–	0.919
[2], 1000 nM	–	0.996
[2], 3000 nM	–	0.663
[3], 4.1 nM	–	0.904
[3], 12.3 nM	–	1.11
[3], 37 nM	–	1.04
[3], 111.1 nM	–	1.12
[3], 333.3 nM	–	1.03
[3], 1000 nM	–	1.13
[3], 3000 nM	–	0.601
[4], 4.1 nM	–	1.06
[4], 12.3 nM	–	1.02
[4], 37 nM	–	1.01
[4], 111.1 nM	–	1.19
[4], 333.3 nM	–	0.914
[4], 1000 nM	–	1.11
[4], 3000 nM	–	0.62
[5], 4.1 nM	–	0.806
[5], 12.3 nM	–	1
[5], 37 nM	–	0.941
[5], 111.1 nM	–	1.12
[5], 333.3 nM	–	1.05
[5], 1000 nM	–	0.786
[5], 3000 nM	–	0.859
[6], 4.1 nM	–	1.16
[6], 12.3 nM	–	1.03
[6], 37 nM	–	1.08
[6], 111.1 nM	–	1.03
[6], 333.3 nM	–	1.06
[6], 1000 nM	–	1.05
[6], 3000 nM	–	0.433
[7], 4.1 nM	–	0.944
[7], 12.3 nM	–	1.04
[7], 37 nM	–	0.955
[7], 111.1 nM	–	1.11
[7], 333.3 nM	–	1.21
[7], 1000 nM	–	1.35
[7], 3000 nM	–	1.18
[8], 4.1 nM	0.886	–
[8], 12.3 nM	0.664	–
[8], 37 nM	0.732	–
[8], 111.1 nM	0.746	–
[8], 333.3 nM	0.975	–
[8], 1000 nM	0.586	–
[8], 3000 nM	6.33	–
[9], 4.1 nM	0.354	–
[9], 12.3 nM	0.793	–
[9], 37 nM	0.496	–
[9], 111.1 nM	0.901	–
[9], 333.3 nM	4.65	–
[9], 1000 nM	0.624	–
[9], 3000 nM	4.48	–
[10], 4.1 nM	0.583	–
[10], 12.3 nM	0.51	–
[10], 37 nM	0.826	–
[10], 111.1 nM	0.771	–
[10], 333.3 nM	0.874	–
[10], 1000 nM	0.721	–
[10], 3000 nM	4.84	–
[11], 4.1 nM	0.43	–
[11], 12.3 nM	0.532	–
[11], 37 nM	0.762	–
[11], 111.1 nM	0.583	–
[11], 333.3 nM	0.607	–
[11], 1000 nM	1.18	–
[11], 3000 nM	5.34	–
[12], 4.1 nM	0.768	–
[12], 12.3 nM	0.429	–
[12], 37 nM	0.97	–
[12], 111.1 nM	1.09	–
[12], 333.3 nM	1.04	–
[12], 1000 nM	0.887	–
[12], 3000 nM	1.55	–
[13], 4.1 nM	0.619	–
[13], 12.3 nM	0.993	–
[13], 37 nM	0.517	–
[13], 111.1 nM	0.737	–
[13], 333.3 nM	0.532	–
[13], 1000 nM	0.717	–
[13], 3000 nM	7.97	–
[14], 4.1 nM	0.348	–
[14], 12.3 nM	0.837	–
[14], 37 nM	0.511	–
[14], 111.1 nM	0.773	–
[14], 333.3 nM	0.915	–
[14], 1000 nM	1.23	–
[14], 3000 nM	2.24	–
